Results taken from patent publication US11124774B2, “Engineered liver tissues, arrays thereof, and methods of making the same” (Organovo, Inc., priority 2013, dated 2021).

Tested on: bioprinted hepatic stellate cell tissues
Experiment: Stimulation of bioprinted hepatic stellate cell tissues with cytokine
Format: cell-based, human
Method: FIG. 15 is a non-limiting example of stimulation of bioprinted hepatic stellate cell tissues with TGF-β1.
Cylindrical bio-ink comprising relevant heterogeneous (i.e., polytypic) cell populations were prepared. Physiologically-relevant populations (e.g., hepatic stellate cells (hSC) and human aortic endothelial cells (EC)) of cells were combined at specific ratios to generate proper bio-ink. Cells were maintained and propagated under standard laboratory conditions and cells were cultured in media either purchased from the same vendor as the cells, or media comprising components typically found in the primary literature to be conducive to standard cell culture practices for those particular cell types. Cell processing for bio-ink preparation was as follows: briefly, cells were liberated from standard tissue culture plastic by washing with cation-free phosphate buffered saline (PBS) and then exposed to 0.1-0.05% trypsin (Invitrogen). Liberated cells were then washed in serum-containing media, collected, counted, and combined in an appropriate ratio for the stimulation assay or experiment being conducted, and pelleted by centrifugation. Supernatant was then removed and the cell pellet was aspirated into a glass microcapillary, which was then submerged in complete media for approximately 15 to 20 minutes. This cylindrical bio-ink structure was then extruded into a non cell-adherent hydrogel mold, containing linear channels and held for 2 to 18 hours. Cylindrical bio-ink containing hSC:EC was then used to fabricate bioprinted tissue constructs and maintained and/or matured in a humidified chamber. Tissue segments were fabricated with initial dimensions of 1.25 mm×8 mm×0.25 mm (W×L×H). During the post-bioprinting maturation period some constructs were exposed to the cytokine TGF-β1 to elicit a tissue-specific response (see FIG. 15).
The bioprinted neotissues were then submerged in serum-containing complete cell culture media and placed in a standard humidified chamber, supplemented with 5% CO2 for maturation. The bioprinted neotissues were then cultured and stimulated with a relevant cytokine(s) for a predetermined period of time, formalin-fixed, harvested, and processed for standard histology and immunohistochemistry. The bioprinted tissues were evaluated for characteristics such as, but not limited to for tissue morphology, cell organization, extracellular matrix production, cell proliferation, cell viability, and construct integrity.
Cytokine stimulation was conducted by adding cytokine directly to the culture media and incubating the bioprinted tissues with the added protein to provide direct and prolonged cell access to the proper stimulus. […]

[1] = 0-50 ng/mL, tissue sections of bioprinted hepatic stellate-containing tissues (FIG. 15E-H)

Substance: TGF-β1: cytokine (transforming growth factor beta 1) used to elicit a tissue-specific response in bioprinted tissues
- cell density [1]: dramatic decreases in cell density
- collagen deposition (Trichrome staining) [1]: increases in collagen deposition
- construct size [1]: increases
- tissue outgrowth formation (gross observation) (increasing concentrations 0, 1, 10, 50 ng/mL, bioprinted hepatic stellate cell sheets (FIG. 15A-D)): increases in tissue outgrowth formation
